In assay [1] the test system is CRM. Put plainly: CRM detection by confocal microscopy in BAEC. The settings on record: paclitaxel 100 nM. It is filed as cell-based, bovine. The protocol: BAEC were grown on CC2-treated chamber slides (Nalge Nunc International Corp., Naperville, USA) and then exposed to etoposide or paclitaxel with or without pre-incubation with Nystatin (30 μg/ml, Sigma) for 30 min. BAEC were then washed in cold PBS, fixed for 15 min in fresh 2% paraformaldehyde, washed 2× with cold PBS, and blocked with 5% FBS in PBS for 20 min at room temperature. Cells were stained with anti-ceramide MID 15B4 IgM (Alexis Corporation) at 1:50 dilution for 1 hour at room temperature, washed 3× in PBS, and thereafter with Texas Red-conjugated secondary antibody (Jackson Immunoresearch Laboratories, Inc.) at 1:500 dilution for 1 hour at room temperature. Nonspecific fluorescence was excluded using isotype control IgM (BD Biosciences). Cells were washed 3×, stained with DAPI and mounted in 0.1% paraphenylenediamine. Fluorescence was detected using Leica TCS SP2 AOBS 1- and 2-photon laser scanning confocal (DMRXA2 upright stand) microscope coupled with MetaMorph 7.5 (Molecular Devices). Number of CRMs in membranes of endothelial cells was analyzed using MetaMorph 7.5 software that allowed outlining of regions containing CRMs based on two criteria: 1) CRM size (≥500 nm); 2) Intensity of ceramide staining. Mice: asmase^+/+ and asmase^−/− mice, maintained in a SCID background, were propagated using heterozygous breeding pairs and genotyped as previously described (Santana et al. Cell, 86, 189-199, 1996; Grassme et al. Nat Med 9, 322-330 (2003). 6-12 week-old C57BL6/SV129 male mice, purchased from The Jackson Laboratory (Bar Harbor).
To test the effect of chemotherapy on ASMase signaling and ceramide production, BAEC were treated with paclitaxel (100 nM) and ASMase activity was determined by radioenzymatic assay (Rotolo et al, infra) using [^14C-methylcholine] sphingomyelin (Amersham) as substrate (FIG. 1A). Induction of ASMase activity was observed within 5 minutes after treatment, and the activation continued for 30 minutes. Ceramide generation was monitored using the diacylglycerol kinase assay (Stancevic et al. PLoS ONE 8, e69025, 2013). […]

For assay [2], the system named is HCT116 human colorectal cancer xenografts. Put plainly: Endothelial apoptosis in vivo (TUNEL/MECA-32) in HCT116 xenografts. Details: species or system mice. The settings on record: single dose paclitaxel 25 mg/kg, 4 hours. The protocol:
Human HCT-116 colon cancer cells and MCA/129 murine sarcoma cells were maintained in DMEM with 10% fetal bovine serum, with 100 u/ml penicillin and 100 μg/ml streptomycin. Cells were grown as monolayers in 75 cm^2 culture flasks at 37° C. in 10% CO2 humidified incubators. Cells were trypsinized, washed in PBS and diluted in Matrigel/PBS solution (40:60 v/v) for HCT-116 xenografts or in PBS for MCA/129 syngeneic tumor grafts. Cells (3×10^6 for HCT-116 or 1×10^6 for MCA129) were injected subcutaneously into the flanks of mice (Garcia-Barros et al. Science 300, 1155-1159, 2003).
To evaluate acute endothelial apoptosis, tumors were grown in mice and treated with drugs as above. After the first treatment, tumors were harvested at specified times, placed into formalin overnight and paraffin-embedded the next day. Paraffin-embedded sections (5 μm) were co-stained for apoptotic endothelium using TUNEL and the endothelial-specific monoclonal antibody MECA-32 (Developmental Studies Hybridoma Bank, developed under the auspices of the NICHD and maintained by The University of Iowa, IA). […]
To further test the ability of cisplatin to affect endothelial cell apoptosis and tumor response in vivo, effects of cisplatin on tumor growth were evaluated.

The subject of assay [3] is BAEC. Put plainly: Apoptosis in vitro (Hoechst nuclear staining) in BAEC. It is filed as cell-based, bovine. The following applies: bovine endothelial cells; cisplatin up to 50 μM; etoposide 50 μM alone, 8 hours. The protocol: Apoptosis was assessed in vitro by examining morphologic changes in nuclear chromatin using bis-benzimide trihydrochloride (Hoechst #33258; Sigma-Aldrich, Milwaukee WI). BAEC and HCAEC monolayer cultures were first detached using 0.25% trypsin and 0.02% EDTA in HBSS and then combined with the floating population of cells. The cell pellet was washed in PBS, resuspended in 3% paraformaldehyde, and incubated for 10 min at 22° C. Following the removal of fixative, cells were resuspended in PBS containing 8 μg/ml of Hoechst-33258. Following a 15-min incubation at 22° C., cells were placed on a glass slide, and scored for the incidence of apoptotic chromatin changes using fluorescence microscope.
Since the ASMase/ceramide pathway is known to play a critical role in endothelial injury and dysfunction, BAEC and HCAEC were treated with paclitaxel (100 nM), etoposide (50 μM), and cisplatin (0.1-50 μM), and endothelial apoptosis was assessed.
To set the basis for experiments involving evaluation of anti-angiogenic therapy in combination with chemotherapy, and the role of ASMase/ceramide pathway in this process, the effects of various factors on the chemotherapy induced cell death were assessed. BAEC were pre-incubated for 30 min with bFGF (2 ng/mL), VEGF (2 ng/mL) or nystatin (30 μg/mL) prior to treatment with etoposide (50 μM), and apoptosis was evaluated after 8 hours using bis-benzamide trihydrochloride staining (FIG. 3).

Assay [4] deals with human cells. The following applies: cited from earlier work.

With `CC(=O)O[C@H]1C(=O)[C@@]2(C)[C@H]([C@H](OC(=O)c3ccccc3)[C@]3(O)C[C@H](OC(=O)[C@H](O)[C@@H](NC(=O)c4ccccc4)c4ccccc4)C(C)=C1C3(C)C)[C@]1(OC(C)=O)CO[C@@H]1C[C@@H]2O` [paclitaxel], in assay [1], the “CRM formation peak time” value turned out to be 5 min and the “CRM formation remained elevated for” value stood at 30 min. In assay [2] (SCID asmase+/+), the Tumor endothelial apoptosis entry is reported as “robust endothelial apoptosis”. In assay [2] (SCID asmase−/−), the Tumor endothelial apoptosis entry is listed as “resistant to chemotherapy-induced endothelial cell apoptosis”.

For `N.N.[Cl][Pt][Cl]` [cisplatin], the Apoptotic response result in assay [3] was “failed to trigger an appropriate apoptotic response”. In assay [4], the ASMase result is listed as “increase ASMase” and the Apoptosis result is “induce apoptosis”.

These data come from patent US12036212B2, “Enhancement of tumor response to chemotherapy by activation of the asmase/ceramide pathway through timed administration of a short-acting anti-angiogenic agent” (Memorial Sloan-Kettering Cancer Center, priority 2014, dated 2024).
